Laboratory results as given in ChEMBL document CHEMBL5528067, “From Synergy to Monotherapy: Discovery of Novel 2,4,6-Trisubstituted Triazine Hydrazone Derivatives with Potent Antifungal Potency In Vitro and In Vivo” (J Med Chem, 2024).

Experiments:
Type in all cases: functional
[1] = test system: Candida albicans; experiment: Antifungal activity against FCZ-resistant Candida albicans strain 901 assessed as growth inhibition measured after 48 hrs incubation by CLSI based micro-dilution broth method
[2] = test system: Candida albicans; experiment: Antifungal activity against FCZ-resistant Candida albicans strain 901 assessed as growth inhibition in presence of fluconazole measured after 48 hrs incubation by CLSI based micro-dilution broth method
[3] = test system: Candida albicans; experiment: Synergistic antifungal activity against FCZ-resistant Candida albicans strain 901 assessed as fractional inhibitory concentration index measured after 48 hrs in presence of FCZ by CLSI based micro-dilution broth method
[4] = test system: Candida albicans; experiment: Antifungal activity against FCZ-resistant Candida albicans strain 904 assessed as growth inhibition measured after 48 hrs incubation by CLSI based micro-dilution broth method
[5] = test system: Candida albicans; experiment: Antifungal activity against FCZ-resistant Candida albicans strain 904 assessed as growth inhibition in presence of fluconazole measured after 48 hrs incubation by CLSI based micro-dilution broth method
[6] = test system: Candida albicans; experiment: Synergistic antifungal activity against FCZ-resistant Candida albicans strain 904 assessed as fractional inhibitory concentration index measured after 48 hrs in presence of FCZ by CLSI based micro-dilution broth method

Structure (SMILES)	MIC80 [1]	MIC80 [2]	fractional inhibitory concentration index (FICI) [3]	MIC80 [4]	MIC80 [5]	fractional inhibitory concentration index (FICI) [6]
Fc1ccc(CNc2nc(NCc3ccc(F)cc3)nc(N/N=C/c3ccccc3F)n2)cc1	> 64 µg/mL	> 64 µg/mL	1.13	> 64 µg/mL	> 64 µg/mL	1.13
O=[N+]([O-])c1ccc(/C=N/Nc2nc(NCc3ccc(F)cc3)nc(NCc3ccc(F)cc3)n2)cc1O	> 64 µg/mL	4 µg/mL	0.19	> 64 µg/mL	4 µg/mL	0.19
Fc1ccc(CNc2nc(NCc3ccc(F)cc3)nc(N/N=C/c3cccc(F)c3)n2)cc1	> 64 µg/mL	> 64 µg/mL	1.13	> 64 µg/mL	> 64 µg/mL	1.13
O=[N+]([O-])c1cc(O)ccc1/C=N/Nc1nc(NCc2ccc(F)cc2)nc(NCc2ccc(F)cc2)n1	> 64 µg/mL	2 µg/mL	0.16	> 64 µg/mL	2 µg/mL	0.16
O=[N+]([O-])c1c(O)cccc1/C=N/Nc1nc(NCc2ccc(F)cc2)nc(NCc2ccc(F)cc2)n1	> 64 µg/mL	> 64 µg/mL	1.13	> 64 µg/mL	> 64 µg/mL	1.13
Oc1cccc(/C=N/Nc2nc(NCc3ccc(F)cc3)nc(NCc3ccc(F)cc3)n2)c1	> 64 µg/mL	8 µg/mL	0.25	> 64 µg/mL	8 µg/mL	0.25
Oc1ccc(/C=N/Nc2nc(NCc3ccc(F)cc3)nc(NCc3ccc(F)cc3)n2)cc1	> 64 µg/mL	16 µg/mL	0.38	> 64 µg/mL	16 µg/mL	0.38
Fc1ccc(CNc2nc(NCc3ccc(F)cc3)nc(N/N=C/c3ccc(I)cc3)n2)cc1	> 64 µg/mL	> 64 µg/mL	1.13	> 64 µg/mL	> 64 µg/mL	1.13
O=[N+]([O-])c1ccc(O)cc1/C=N/Nc1nc(NCc2ccc(F)cc2)nc(NCc2ccc(F)cc2)n1	> 64 µg/mL	8 µg/mL	0.25	> 64 µg/mL	8 µg/mL	0.25
Fc1ccc(CNc2nc(NCc3ccc(F)cc3)nc(N/N=C/c3ccc(Br)cc3)n2)cc1	> 64 µg/mL	> 64 µg/mL	1.13	> 64 µg/mL	> 64 µg/mL	1.13
Fc1ccc(CNc2nc(NCc3ccc(F)cc3)nc(N/N=C/c3ccccc3)n2)cc1	> 64 µg/mL	> 64 µg/mL	1.13	> 64 µg/mL	> 64 µg/mL	1.13
Fc1ccc(CNc2nc(NCc3ccc(F)cc3)nc(N/N=C/c3ccc(C(F)(F)F)cc3)n2)cc1	> 64 µg/mL	> 64 µg/mL	1.13	> 64 µg/mL	> 64 µg/mL	1.13
Fc1ccc(CNc2nc(NCc3ccc(F)cc3)nc(N/N=C/c3ccc(OC(F)(F)F)cc3)n2)cc1	> 64 µg/mL	> 64 µg/mL	1.13	> 64 µg/mL	> 64 µg/mL	1.13
O=[N+]([O-])c1cc(O)cc(/C=N/Nc2nc(NCc3ccc(F)cc3)nc(NCc3ccc(F)cc3)n2)c1	> 64 µg/mL	8 µg/mL	0.25	> 64 µg/mL	4 µg/mL	0.19
Cc1ccccc1/C=N/Nc1nc(NCc2ccc(F)cc2)nc(NCc2ccc(F)cc2)n1	> 64 µg/mL	> 64 µg/mL	1.13	> 64 µg/mL	> 64 µg/mL	1.13
Fc1ccc(CNc2nc(NCc3ccc(F)cc3)nc(N/N=C/c3ccc(Cl)cc3)n2)cc1	> 64 µg/mL	> 64 µg/mL	1.13	> 64 µg/mL	> 64 µg/mL	1.13
